Assay results as given in article PMC10459870, “A New Diterpenoid of Indonesian Scoparia dulcis Linn: Isolation and Cytotoxic Activity against MCF-7 and T47D Cell Lines” (Molecules, 2023).
≈ marks a conversion by molar mass, not a printed value.

Columns and labels:
[1] = test system: MCF-7 breast cancer cells; test: MTT cytotoxic activity assay, MCF-7; assay type: cell-based; details: for IC50: Homo sapiens, MCF7, MTT, 24 h treatment, mean ± SD; for Selectivity Index (SI) MCF-7: IC50 Vero / IC50 MCF-7
Protocol: (§1) A cytotoxic test was performed to obtain an overview of the activity of the sample on the inhibition of cancer cells. The parameter used was the inhibition concentration of 50% (IC50), a concentration that inhibits cells by 50% of the cell population. The IC50 value was calculated from the results of a linear regression between log concentration and the percentage of cell viability.
(§2) The cell lines were obtained from the Parasitology Laboratory, Faculty of Medicine, Universitas Gadjah Mada, Yogyakarta, Indonesia. Each MCF-7 and T47D cell was cultured with complete media, namely, DMEM media for MCF-7 and RPMI for T47D, which contained 10% FBS, 2% penicillin–streptomycin, and 0.5% fungzon. Cultures were stored in a 5% CO2 incubator and for harvesting cells using trypsin, as well as sample solvents using DMSO.
(§3) Compound (1) was tested for its cytotoxic activity using an MTT assay on MCF-7 and T47D breast cancer cells. Briefly, 1 × 10^4 MCF-7 and T47D cells/wells were grown in 96 well plates and incubated for 24 h in a CO2 incubator. The cells were treated with sample concentrations of 200, 100, 50, 25, 12.5, and 6.25 μg/mL for MCF-7 and 50, 25, 12.5, 6.25, 3.125, and 1.5625 μg/mL for T47D and then incubated for 24 h in a CO2 incubator. After incubation, the condition of the cells was observed under a microscope. The cell media was discarded followed by washing with phosphate-buffered saline (PBS). Then 0.5 mg/mL MTT reagent, up to 100 µL, was added to each well followed by incubation again for 4 h in a CO2 incubator. The cells were observed under a microscope, and after the formazan was clear, 100 µL of SDS stopper reagent was added in 0.01 N HCl. The plate was incubated at room temperature in a dark place for 1 × 24 h, then the absorbance was read with a microplate reader at a wavelength of 595 nm. Analysis of the absorbance data for the cytotoxic test was carried out by calculating the percentage of viable cells using the following formula.
(§4) IC50 values were calculated using a linear regression between sample concentrations and the percent (%)cell viability.

[2] = test system: T47D breast cancer cells; test: MTT cytotoxic activity assay, T47D; assay type: cell-based; details: for IC50: Homo sapiens, T47D, MTT, 24 h treatment, mean ± SD; for Selectivity Index (SI) T47D: IC50 Vero / IC50 T47D
Protocol: as §1, §2, §3, §4

[3] = test system: Vero cells; test: MTT cytotoxic activity assay, Vero; assay type: cell-based; details: Chlorocebus sabaeus, mean ± SD
[4] = test system: MCF-7 breast cancer cells; test: Cell cycle distribution by flow cytometry (PI), MCF-7; assay type: cell-based
Protocol: (§5) Cell cycle inhibition and apoptosis induction tests were carried out on compound (1). The analysis was performed using the flow cytometry method to determine the percentage of living cells in each phase of the cell cycle.
(§6) This test was carried out on isolated samples (compound (1)). Culture confluent cells were distributed to 6-well plates, each 2000 µL (for treatment and for cell control). After 24 h of incubation, concentration series were made. The cells were washed with PBS, and 1000 µL of the sample solution with a certain concentration series was put in the well. For the control cells, 1000 µL of culture medium was added well. The cells were again incubated for 24 h in the CO incubator. After incubation, media from the 6-well plates were inserted into a conical tube, then washed with 1000 µL PBS and put into the same conical tube. Then, 200 µL trypsin-EDTA 0.25% was added and incubated for 3 min. Then, 1000 µL of culture medium was also added and resuspended until the cells were released one by one. The cells are then transferred to a conical and centrifuged at 2000 rpm for 3 min. For cell cycle observations, a deep cell precipitates conical tube covered with aluminum foil was dissolved with 400 µL of the PI reagent containing 1 mg/mL PI, 10 mg/mL RNAse, and 0.1% (v/v) Triton-X 100. The cells were resuspended and incubated for 5 min, and then the cell suspension was transferred into a flow cytometry tube for analysis (Ayers et al., 2011). For observations of apoptosis, the supernatant was discarded, then 100 µL of Annexin-V-FLUOS staining was added consisting of 100 µL binding buffer, 2 µL Annexin V, and 2 µL PI. This was followed by incubation in a dark space for 10 min and then analysis using a flow cytometer.

[5] = test system: T47D breast cancer cells; test: Cell cycle distribution by flow cytometry (PI), T47D; assay type: cell-based
Protocol: as §5
as §6, with “The cells were resuspended and incubated for 5 min, and then the cell suspension was transferred into a flow cytometry tube for analysis (Ayers et al., 2011). For observations of apoptosis, the supernatant was discarded, then 100 µL of Annexin-V-FLUOS staining was added consisting of 100 µL binding buffer, 2 µL Annexin V, and 2 µL PI. This was followed by incubation in a dark space for 10 min and then analysis using a flow cytometer.” left out

[6] = test system: MCF-7 breast cancer cells; test: Apoptosis induction, Annexin V/PI flow cytometry, MCF-7; assay type: cell-based
Protocol: (§7) The method used in this study was the detected Annexin V method using flow cytometry, which allowed for observing the induction of apoptosis that occurs in cells following treatment. Annexin V is a member of a family of phospholipid-binding proteins that are strongly negatively charged on the cell membrane. Cell death resulting from apoptosis or necrosis can be differentiated using propidium iodide (PI) staining intercalation with DNA [24].
as §6

[7] = test system: T47D breast cancer cells; test: Apoptosis induction, Annexin V/PI flow cytometry, T47D; assay type: cell-based
Protocol: as §7, §6

[8] = test system: PPAR-γ; details: reported in the literature; read-out: EC50, agonistic activity against PPAR-γ; cited from earlier work

SMILES: C=C1CC(OC(=O)c2ccccc2)C2C(C)(CO)CC(O)CC2(C)C1CCC(C)=CCO (stereo not drawn) [Compound (1), 2α-hydroxyscopadiol]
- IC50 [1]: 70.6 ± 1.54 µg/mL (≈ 159 µM)
- Selectivity Index (SI) MCF-7 [1]: 0.51
- cytotoxic activity class, MCF-7 ([1]; grouped according to IC50): strong (“strong cytotoxic” IC50 is 10–100 µg/mL)
- IC50 [2]: < 3.12 µg/mL
- Selectivity Index (SI) T47D [2]: > 3
- cytotoxic activity class, T47D ([2]; grouped according to IC50): very strong (“very strong cytotoxic”: IC50 < 10 µg/mL)
- IC50 [3]: 36.5 ± 1.41 µg/mL (≈ 82.5 µM)
- % Parent, G1, Cell Cycles against MCF-7 ([4]; 1/2 IC50, 24 h): 76.5%
- % Parent, G2-M, Cell Cycles against MCF-7 ([4]; 1/2 IC50, 24 h): 17.2%
- % Parent, G1, Cell Cycles against MCF-7 ([4]; 1 IC50, 24 h): 78.4%
- % Parent, G1, Cell Cycles against T47D ([5]; 1/2 IC50, 24 h): 50.9%
- % Parent, G1, Cell Cycles against T47D ([5]; 1 IC50, 24 h): 53.3%
- Apoptosis against MCF-7, % Parent, P3 (early apoptosis) ([6]; 1/2 IC50, 24 h): 33.5%
- Apoptosis against MCF-7, % Parent, P4 (late apoptosis) ([6]; 1/2 IC50, 24 h): 16.8%
- Apoptosis against MCF-7, % Parent, P4 (late apoptosis) ([6]; 1/4 IC50, 24 h): 15.1%
- Apoptosis against MCF-7, % Parent, P3 (early apoptosis) ([6]; 1 IC50, 24 h): 80.7%
- Apoptosis against MCF-7, % Parent, P4 (late apoptosis) ([6]; 1 IC50, 24 h): 11.7%
- Apoptosis against T47D, % Parent, P3 (early apoptosis) ([7]; 1/2 IC50, 24 h): 6.1%
- Apoptosis against T47D, % Parent, P4 (late apoptosis) ([7]; 1/2 IC50, 24 h): 3.0%
- Apoptosis against T47D, % Parent, P3 (early apoptosis) ([7]; 1/4 IC50, 24 h): 5%
- Apoptosis against T47D, % Parent, P3 (early apoptosis) ([7]; 1 IC50, 24 h): 24.8%
- Apoptosis against T47D, % Parent, P4 (late apoptosis) ([7]; 1 IC50, 24 h): 2.9%

SMILES: C=C1[C@@H](OC(C)=O)[C@H](OC(=O)c2ccccc2)[C@H]2[C@@](C)(CCC[C@]2(C)C(=O)O)[C@H]1CC/C(C)=C/CO [Compound (3), 4-epi-7α-O-acetylscoparic acid A]
- EC50 [8]: 900 ± 300 nM

SMILES: COc1cccc2c1C(=O)c1c(O)c3c(c(O)c1C2=O)C[C@@](O)(C(=O)CO)C[C@@H]3O[C@H]1C[C@H](N)[C@H](O)[C@H](C)O1 [Doxorubicin, reference compound]
- IC50 [1]: 16.6 ± 5.85 µg/mL (≈ 30.6 µM)
- Selectivity Index (SI) MCF-7 [1]: 4.2
- IC50 [2]: 35.1 ± 3.14 µg/mL (≈ 64.5 µM)
- Selectivity Index (SI) T47D [2]: < 3
- IC50 [3]: 69.5 ± 6.8 µg/mL (≈ 128 µM)
